The source of these data is patent US9907787B2, “Method of supplementing the diet and ameliorating oxidative stress” (priority 2008, dated 2018).

For data set [1] the following is noted: water soluble antioxidants and chelators, rapidly cleared by kidneys or liver; cited from earlier work.
Data set [2] deals with rats. To be noted: intraperitoneal; cited from earlier work.
Data set [3] in a line: Storage stability. The data set is classed as physicochemical. To be noted: sealed plastic test tubes, sixteen months, room temperature. From the text: OSR also has excellent stability when stored in sealed plastic test tubes with less than three percent breakdown occurring at sixteen months of storage at room temperature. Most antioxidants break down very rapidly when exposed to air or water but OSR is exceptional in this regards.

The test system of data set [4] is rats injected with mercuric chloride. The experiment in a line: Protective effects of OSR on rats injected with mercuric chloride. It is filed as in vivo, rat. Particulars: for survival (Alive/Dead): Rat 1-3. More on the design: key to survival (Alive/Dead): A = Alive; D = Dead. Here is the method:
Protective effects of OSR on rats injected subcutaneously with mercuric chloride.
Our experiments were designed around this value.
For each of the experiments nine, 5-7 weeks old, rats were chosen. They were divided into three groups and they were fed rat chow and water ad libitum.
The mercuric chloride was dissolved in PBS/DMSO and injected intraperitoneally at time zero.
The compound OSR was dissolved in 0.75 ml DMSO and 0.25 ml PBS. Injection was subcutaneous under the skin covering the stomach. These were done 20 min. after the injection of the mercuric chloride.

Data set [5] deals with glutathione-S-transferase (GST). The experiment in a line: Effect of OSR on Glutathione-S-transferase (GST) levels. It is filed as in vivo, human. To be noted: for Glutathione-S-transferase (GST) levels: lines = patients 1-10. From the text:
GST is an enzyme that uses glutathione (GSH) as a substrate to covalently modify certain organic toxins by ‘transferring GSH’ to a P-450 enzyme oxidized site on the toxin. […] GST was non-detectable in all 10 patients at the start of the study and was detectable in all 10 patients at the end of the study. The change in the redox level most likely had something to do with the appearance of this enzyme. It is a common mechanism in cellular regulation that the lowering of a substrate (e.g. glutathione) needed at several locations results in the suppressed expression of the enzyme (e.g. GST) that use this substrate for reactions that are less necessary to support survival. The buildup of GSH most likely induces the expression of GST and this buildup accounts for the induction of new GST synthesis.

A short description of data set [6]: ORAC (oxygen-radical-absorbance-capacity) score. It is filed as biochemical. Here is the method: As should be appreciated from the following table, OSR has an exceptionally high ORAC (oxygen-radical-absorbance-capacity) score.
The ORAC score is measured by a compound or elixer's ability to intercept reactive oxygen species, free radicals preventing them from oxidizing a water soluble fluorescent vitamin-E derivative. OSR has the ability in the body to protect vitamin-E (a fat soluble vitamin) and other fat soluble natural compounds such as lipids from damage by oxidizing free radicals since it partitions into the hydrophobic areas where they exist and reacts with free radicals more effectively than they do, thereby scavenging the hydroxyl free radicals and preventing them from doing damage. […] OSR is more capable of reacting with these radicals than vitamin-E and, accordingly, OSR should provide even better protection. In fact, OSR should salvage vitamin E and D in vivo.

A short description of data set [7]: Effect of OSR treatment on essential elements. The data set is classed as in vivo. Particulars: treatment with OSR. From the text:
(§1) Also, copper and zinc are primarily found in a water environment (hydrophilic aspects) of the body whereas OSR partitions into the hydrophobic aspects. This separation may play a role in the lack of OSR removing copper and zinc. However, in diseases with excess free copper, iron or zinc, OSR is likely to be able to bind and decrease the toxicity of these metals.

Data set [8] can be described thus: Affinity for heavy metals. It is filed as binding.
Source text: as §1

Data set [9] concerns cysteine, methionine, homocysteine. The data set is described as follows: Effect of OSR on blood sulfur containing amino acid levels. It is filed as in vivo, human. To be noted: 10 patients, two month period. From the text: To determine if OSR changed the level of cysteine, the rate limiting amino acid in glutathione synthesis, the level of all thiol containing amino acids was done for the same 10 patients for a two month period. […] The homocysteine level was high in patient #9, a person diagnosed with Alzheimer's disease, over the two month testing their levels dropped to near normal levels.
The possible exception was the homocysteine levels in patient #9, a person with Alzheimer's disease.

The nature of data set [10]: Kinetic study: plasma half-life, tissue distribution and clearance. It is filed as in vivo. From the text:
The mitochondria, especially if abnormal or damaged by heavy metals or radiation, are the main producers of the free radicals that cause cellular damage to the membranes, proteins or nucleic acids (DNA, RNA). Therefore, OSR is positioned to intercept these free radicals before they do damage and the ORAC scores show us OSR is exceptional at scavenging these toxic chemicals. Thus, OSR operates as an antioxidant in a more efficient and effective level than antioxidants generally known in the art.
It should also be appreciated that OSR is cleared from all tissues tested by over 90% twenty-four hours after ingestion. Therefore, no toxic build-up of OSR occurs in the mammal.
Preferred dosage forms for oral administration include the isolated compounds in powder form. Such powders may be taken up with a swoop and spread onto food or mixed into drinks for easy consumption without bad taste. The pure compounds may be pre-mixed with certain dietary ingredients such as butter, olive oil, corn oil, albumin, whey or other foods which will help in absorption of the compounds by the mere process of dissolving them. Using OSR dissolved in corn oil, it was determined that it takes two hours post ingestion for the maximum level of OSR to show up in the plasma of all tested animals.

Data set [11] can be described thus: Solubility. It is filed as physicochemical. From the text: In fact, the compounds in U.S. Pat. No. 6,586,600 were mostly ineffective at treating environmental contaminations of heavy metal due to their insolubility in water and many organic solvents. The conventional wisdom is that any metal chelator has to be water soluble to be effective is evidenced by the currently known chelators such as dimercapopropane sulfonate (DMPS), dimercaptosuccinic acid (DMSA), ethylenediaminetetraacetic acid (EDTA) and even the natural mammalian heavy metal chelator glutathione. These observations made the use of the compounds questionable for any mammalian based treatment regarding the removal of charged toxic metals like Hg^2+, Pb^2+, and Cd^2+ which are water soluble and would most likely be located in the aqueous aspects of mammalian tissues. Additionally, any compound that is not water soluble nor soluble in most organic solvents would not be expected to pass the intestinal endothelial membrane barrier and enter the blood and tissues of the mammal. Further, the compound(s) would have to cross the cell membrane to be able to interact with and bind the intracellular located heavy metal responsible for the toxic effects. It would also have to be able to cross the blood brain barrier to be effective for any neurotoxic heavy metal effect. […]

Data set [12] can be described thus: Toxicity / LD-50 in test animals. The data set is classed as in vivo. From the text: In fact, OSR is so non-toxic that an LD-50 could not be identified and was established as greater than 5 grams per kilogram body weight.
In data set [13] the test system is blood GSH, GSSG. The experiment in a line: Effect of daily OSR on blood GSH, GSSG levels and GSH/GSSG ratios. To be noted: 10 subjects, 200 mg of OSR per day. It is filed as in vivo, human. From the text:
Effect of daily administration of OSR on key biochemical parameters. […] Also, the major improvement seemed to result from the very significant decrease in oxidized glutathione (GSSG) instead of a total increase in all forms of glutathione. This would be best explained by OSR scavenging hydroxyl free radicals salvaging the GSH by preventing its oxidation to GSSG. This change occurred in 10 of 10 subjects.
All were in reasonable health with no obvious bacterial infections. GSH/GSSG ratios increased in all primarily due to the drop in GSSG levels in all subjects. […] The average tGSH/GSSG ratio almost doubled caused by a near average halving of the GSSG levels.

Several values for one entry are separate records, joined by “and”; a condition that tells them apart may be missing. Identical values can stand only once. Entries after “also recorded” stand apart in the source; their conditions may differ.

`Oc1ccc(C=Cc2cc(O)cc(O)c2)cc1` [resveratrol]: the half-life result in data set [1] was “less than one to two”.
For `N[C@@H](CCC(=O)N[C@@H](CS)C(=O)NCC(=O)O)C(=O)O` [glutathione], the half-life result in data set [1] is given as “less than one to two”.
Consider `O=S(=O)(O)CC(S)CS` (centres unmarked) [DMPS, dimercaptopropane sulfonate], for which the half-life entry in [1] is “less than one to two”.
As to `[Cl][Hg][Cl]` [mercury chloride], the “LD 50” value in [2] is on record as 3.2 mg/kg body weight.
Regarding `O=C(O)C(S)C(S)C(=O)O` (centres unmarked) [DMSA, dimercaptosuccinic acid], the half-life entry in data set [1] was “less than one to two”.
With `O=C(NCCS)c1cccc(C(=O)NCCS)c1` [OSR, N,N′-bis(2-mercaptoethyl)isophthalamide], the breakdown on storage result in data set [3] is “less than three”. The “survival (Alive/Dead)” value is reported as “A” in data set [4] (0 hr, mercury chloride 2 mg/kg body weight, OSR 0.5 millimoles/kg subcutaneous 20 min after); “A” in [4] (0 hr, mercury chloride 14 mg/kg body weight, OSR 1 mM/kg body weight subcutaneous 20 min after); “A” in [4] (1 week, mercury chloride 2 mg/kg body weight, OSR 0.5 millimoles/kg subcutaneous 20 min after); “A” in data set [4] (1 week, mercury chloride 14 mg/kg body weight, OSR 1 mM/kg body weight subcutaneous 20 min after); “A” in data set [4] (6 hr, mercury chloride 2 mg/kg body weight, OSR 0.5 millimoles/kg subcutaneous 20 min after); “A” in data set [4] (6 hr, mercury chloride 14 mg/kg body weight, OSR 1 mM/kg body weight subcutaneous 20 min after). Also, the “survival (Alive/Dead)” value is “A” in data set [4] (12 hr, mercury chloride 2 mg/kg body weight, OSR 0.5 millimoles/kg subcutaneous 20 min after); “A” in data set [4] (12 hr, mercury chloride 14 mg/kg body weight, OSR 1 mM/kg body weight subcutaneous 20 min after); “A” in [4] (24 hr, mercury chloride 2 mg/kg body weight, OSR 0.5 millimoles/kg subcutaneous 20 min after); “A” in data set [4] (24 hr, mercury chloride 14 mg/kg body weight, OSR 1 mM/kg body weight subcutaneous 20 min after); “A” in data set [4] (48 hr, mercury chloride 2 mg/kg body weight, OSR 0.5 millimoles/kg subcutaneous 20 min after); “D and A” in data set [4] (48 hr, mercury chloride 14 mg/kg body weight, OSR 1 mM/kg body weight subcutaneous 20 min after). For the same molecule, the “protection from mercury induced toxic effects (blood in urine and feces, death, weight loss, ataxia)” value in [4] (rats given 0.6 lethal dose of mercury chloride, 10-fold excess of OSR twenty-thirty minutes later) is recorded as “protected from mercury induced toxic effects”. The “excretion route of OSR bound mercury” value in data set [4] (rats given mercury chloride and OSR) is “primarily excreted through the fecal route”. In addition, the protection from death result in data set [4] (rats injected with 1-5 levels (or higher) of lethal doses of mercury chloride, single 10-fold excess of OSR dissolved in DMSO) is on record as “protected from death”. Besides, the “glutathione-S-transferase (GST), result in words” value in data set [5] (10 patients, after OSR treatment) was “consistently elevated in all 10 patients”. Besides, the “Glutathione-S-transferase (GST) levels” value in data set [5] (time 1 month) was 0.58 ng/mL and 0.46 ng/mL; in [5] (time 2 months), 0.53 ng/mL and 0.43 ng/mL and 0.37 ng/mL and 0.32 ng/mL and 0.63 ng/mL and 0.48 ng/mL. Further, in data set [6], the “ORAC Score” value is reported as 192,400 μmoleTE/100 g. In data set [7], the “lowering of essential elements copper, iron and zinc” value is given as “does not result in a significant lowering”. Moreover, in data set [8], the “affinity for mercury, lead, arsenic and cadmium” value is recorded as “exceptionally high affinity”. Also, the “changes in cysteine, methionine or homocysteine levels, result in words” value in data set [9] is on record as “No significant consistent changes”. Besides, the “OSR levels relative to peak values seen at hour 2” value in data set [10] (24 hours post-ingestion, OSR dissolved in corn oil) was 4-12%. The “time post ingestion for the maximum level of OSR in plasma” value in data set [10] (OSR dissolved in corn oil, all tested animals) is listed as “two”. Also, the “blood brain barrier / tissue entry” value in [10] (kinetic study, all tissues tested) is reported as “crosses the blood brain barrier”. In addition, the half-life in plasma result in data set [10] (plasma of test animals) is reported as “about six to seven”. The “cleared from all tissues tested” value in data set [10] (twenty-four hours after ingestion) is “over 90%”. In addition, the lipid solubility result in [11] is given as “lipid soluble”. Also, in [12], the LD-50 result is “greater than 5 grams per kilogram body weight”. Moreover, the toxicity result in data set [12] (levels up to 5,000 mg per day) is on record as “without toxicity”. Also, the “GSH levels, result in words” value in [13] (two months) is listed as “increased slightly in 7 of 10”. In addition, in data set [13] (whole blood, OSR taken regularly, approximately 60 days), the “redox ratio (GSH/GSSG), result in words” value was “significantly increase; also recorded: dramatically improved”.
